Test results taken from patent publication US20250092058A1 (priority 2018, published 2025).
Read-outs that look alike come from different tables or passages of the source.

Columns and labels:
[1] = test system: HepG2; format: cell-based, human; conditions: Table 13; MTT; HepG2 liver cancer
[2] = test system: A549; format: cell-based, human; conditions: Table 13; MTT; A549 lung cancer
[3] = test system: HeLa; format: cell-based, human; conditions: Table 13; MTT; HeLa cervical cancer
[4] = test system: HCT116; format: cell-based, human; conditions: Table 13; MTT; HCT116 colorectal cancer
[5] = target: Top1 (Homo sapiens, UniProt P11387); format: biochemical
Top1, sequence (P11387 whole entry, species assumed): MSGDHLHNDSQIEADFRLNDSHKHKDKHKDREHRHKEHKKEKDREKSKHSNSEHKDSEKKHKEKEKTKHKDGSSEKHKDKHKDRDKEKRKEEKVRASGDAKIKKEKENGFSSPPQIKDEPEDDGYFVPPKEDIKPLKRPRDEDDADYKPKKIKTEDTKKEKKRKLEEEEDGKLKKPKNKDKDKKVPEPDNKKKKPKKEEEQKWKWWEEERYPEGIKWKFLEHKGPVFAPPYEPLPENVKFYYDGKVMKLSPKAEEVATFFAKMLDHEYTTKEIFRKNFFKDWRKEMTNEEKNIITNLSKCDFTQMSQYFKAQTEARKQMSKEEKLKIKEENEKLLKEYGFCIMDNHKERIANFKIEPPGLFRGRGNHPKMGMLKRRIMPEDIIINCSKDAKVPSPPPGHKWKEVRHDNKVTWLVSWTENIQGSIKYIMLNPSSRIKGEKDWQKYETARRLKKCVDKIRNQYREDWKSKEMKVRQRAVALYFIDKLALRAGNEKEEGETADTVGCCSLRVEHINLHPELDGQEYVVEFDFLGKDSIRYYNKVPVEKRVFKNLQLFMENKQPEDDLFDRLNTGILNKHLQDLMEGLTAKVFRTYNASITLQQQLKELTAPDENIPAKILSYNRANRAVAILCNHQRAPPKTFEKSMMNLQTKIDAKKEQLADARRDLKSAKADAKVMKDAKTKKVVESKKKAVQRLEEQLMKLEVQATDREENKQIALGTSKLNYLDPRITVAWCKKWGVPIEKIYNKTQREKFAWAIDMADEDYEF

[6] = target: DDX5-blocked Top1 (Homo sapiens, UniProt P17844); format: biochemical; conditions: 0.05 μM; DDX5 100 nM; Top1 1 IU
DDX5-blocked Top1, sequence (P17844 whole entry): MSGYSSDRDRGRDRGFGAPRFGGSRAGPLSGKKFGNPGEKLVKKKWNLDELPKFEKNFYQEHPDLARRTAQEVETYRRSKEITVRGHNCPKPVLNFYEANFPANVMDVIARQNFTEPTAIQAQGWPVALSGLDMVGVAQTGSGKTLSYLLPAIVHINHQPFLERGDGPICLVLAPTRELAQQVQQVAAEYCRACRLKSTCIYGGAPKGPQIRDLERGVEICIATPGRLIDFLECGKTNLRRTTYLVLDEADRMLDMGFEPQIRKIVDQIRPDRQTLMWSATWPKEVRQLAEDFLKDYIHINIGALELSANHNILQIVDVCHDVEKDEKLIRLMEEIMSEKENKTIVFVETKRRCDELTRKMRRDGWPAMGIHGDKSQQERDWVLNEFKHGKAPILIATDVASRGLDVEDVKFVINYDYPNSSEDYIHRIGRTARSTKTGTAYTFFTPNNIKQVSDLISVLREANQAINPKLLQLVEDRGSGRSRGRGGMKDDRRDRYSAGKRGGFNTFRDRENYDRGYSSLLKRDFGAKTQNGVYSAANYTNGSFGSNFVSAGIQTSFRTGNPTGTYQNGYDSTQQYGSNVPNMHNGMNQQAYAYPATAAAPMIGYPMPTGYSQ
Procedure: Experimental condition: Top1 was used for 1 IU; DDX5 was used in 100 nM; and 1 μg supercoiled pRB322 DNA was used.

[7] = test system: HCT116; experiment: MTT assay HCT116; format: cell-based, human
Procedure: (§1) MTT assays. […] Each experiment was performed at least in triplicate.

[8] = test system: T24; experiment: MTT assay T24; format: cell-based; conditions: Table 5 lower part; T24 bladder cancer
Procedure: (§2) MTT assays. […] Viable cells (2500 cells per well) were plated in each well in 96-well plates. After an overnight incubation, cells were treated with and without relevant drugs alone and in combination, respectively, at various concentrations and incubated for 72 hours. MTT, a colorimetric substrate, was added to a final concentration of 0.4 mg/ml to each well. Cells in 96-well plates were further incubated in a 5% CO2 incubator at 37° C. for 4 hours, and then the medium was aspirated. The MTT metabolic product formazan was solubilized by adding 200 ul of DMSO to each well. Absorbance in the relevant wells was measured at 570 nm using an Ultra Microplate Reader (Bio-Tek Instruments). Each experiment was performed at least in triplicate. IC50/EC50 values were calculated from a series of drug dose ranges for each analyzed compound, using GraphPad Prism 6 (GraphPad Software, Inc., La Jolla, CA).
(§3) The inhibition of cell growth and viability in various cancer cell types were tested using MTT assay for references.

[9] = test system: RT4; experiment: MTT assay RT4; format: cell-based; conditions: Table 5 lower part; RT4 bladder cancer
Procedure: as §2, §3

[10] = test system: H1376
Procedure: as §2, §3

[11] = test system: UMUC-3
Procedure: as §2, §3

[12] = test system: UOK151
Procedure: as §2, §3

[13] = test system: UOK262
Procedure: as §2, §3

[14] = test system: HT-3; experiment: MTT assay HT-3; format: cell-based, human; conditions: Table 7; HT-3
Outline: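 Absorbance at 570 nm of DMSO-solubilized formazan served as the viability read-out after 72 h drug exposure of 2500 cells per well. MTT was present at 0.4 mg/ml final for the last 4 h at 37° C. IC50/EC50 values derive from concentration series run at least in triplicate.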

[15] = test system: Y79; experiment: MTT assay Y79; format: cell-based; conditions: Table 7
Procedure: as §1

[16] = test system: Wer 127; experiment: MTT assay Wer 127; format: cell-based; conditions: Table 7
Procedure: as §1

SMILES: CCc1c2c(nc3ccc(O)cc13)-c1cc3c(c(=O)n1C2)COC(=O)[C@]3(O)CC [SN38, reference compound]
- IC50 [1]: 268.4 ± 0.6 nM
- IC50 [2]: 475 ± 9 nM
- IC50 [3]: 234 ± 5.2 nM
- IC50 [4]: 366.9 ± 3.3 nM
- concentrations blocking Top1 nicking SC DNA activity [5]: could only be blocked by 5 and 50 μM
- unblocking of DDX5-blocked Top1 activity [6]: cannot
- IC50/EC50 ([7]; Table 7): 619.8 nM
- IC50/EC50 ([7]; Table 8): 619.8 nM
- IC50/EC50 [8]: 2.32 nM
- IC50/EC50 [9]: 17.6 nM
- IC50/EC50 ([10]; Table 5 lower part, H1376 bladder cancer): >500 nM
- IC50/EC50 ([10]; Table 8, H1376): >500 nM
- IC50/EC50 ([11]; Table 5 lower part, UMUC-3 bladder cancer): 8.2 nM
- IC50/EC50 ([11]; Table 8, UMUC-3): 8.2 nM
- IC50/EC50 ([12]; Table 5 lower part, UOK151 kidney cancer): >500 nM
- IC50/EC50 ([12]; Table 8, UOK151): >500 nM
- IC50/EC50 ([12]; Table 10, UOK151): >500 nM
- IC50/EC50 ([13]; Table 5 lower part, UOK262 kidney cancer): 33.8 nM
- IC50/EC50 ([13]; Table 8, UOK262): 33.8 nM
- IC50/EC50 ([13]; Table 10, UOK262): 33.8 nM
- IC50/EC50 [14]: 18 nM
- IC50/EC50 [15]: 5.25 nM
- IC50/EC50 [16]: 6.85 nM
